Measured values published in US20110071094A1, “(D)-ALLOSE INDUCING PROGRAMMED CELL DEATH IN HORMONE REFRACTORY PROSTATE CANCER LINES” (INDUSTRY-ACADEMIC COOPERATION FOUDATION, GYEONGSANG …, priority 2008, published 2011).

How the values were obtained:
Assay type in all cases: cell-based, human
DU145 cell line [1] = assay: Apoptotic indices by DAPI staining, confocal microscopy; conditions: DU145, 24, 48 and 72 h
Method: (§1) The Annexin-V-FLUOS Staining Kit (Roche Diagnostics GmbH, Mannheim, Germany) was used for the detection and quantification of the apoptotic cells. This kit uses a dual-staining protocol in which the apoptotic cells are stained with annexin-V (green fluorescence) and the necrotic cells are stained with propidium iodide (PI, red fluorescence). Briefly, DU145 cell line was grown at a density of 1×10^6 cells in triplicate culture plates and then treated with D-allose (0, 20 and 40 mM) for 48 and 72 h. The cells were treated with trypsin and harvested with PBS and processed for labeling with annexin-V and PI by the use of the kit according to the manufacturer's protocol. The fluorescence was measured by flow cytometric analysis, performed on a FACSCalibur (Becton Dickinson, San Jose, Calif., USA) using 488 nm excitation and a 515 nm band pass filter for fluorescein detection and a filter [600 nm for PI detection (FL1: Annexin-V-FLUOS; FL2: PI). Further, apoptotic indices were measured by analysis of fragmented or scattered nuclei and condensed chromosome as the stringent morphological criteria of apoptosis, detectable by confocal microscopy on cells stained with DNA-intercalating dye […] (DAPI). For this purpose, DU145 and PrEC cell lines were exposed to 0, 20 and 40 mM of D-allose for up to 72 h, stained with DAPI (1 μg/ml in methanol), mounted with Prolong Antifade reagent (Molecular Probes, Eugene, Oreg., USA), and images were acquired by use of a confocal laser scanning microscope (Fluoview FV 1000, Olympus, Japan). The numbers of apoptotic nuclei per 100 cells were counted from the five high power fields/slide and apoptotic indices were expressed as a percentage of the untreated controls in each cell line, considering the value as 100%. DU145 cell line was also treated with 0-40 mM of D-glucose for determination of apoptotic indices as mentioned above.

PrEC cell line = assay: as above; conditions: PrEC, 24, 48 and 72 h
Method: as §1

DU145 cell line [2] = assay: Cell cycle analysis, PI staining, flow cytometry; conditions: for cells in G0-G1 phase: 48 h, untreated control 31.9%
Method: DU145 cell line (1×10^6 cells in triplicate culture plates) was treated with D-allose (0, 20 and 40 mM) for 48 and 72 h. The cells were treated with trypsin and harvested with PBS, centrifuged and resuspended the pellet in cold PBS-methanol mixture (1:9) for 1 h at 4° C. The cells were centrifuged, pellet washed and resuspended with PBS again, and incubated with RNAse (20 mg/ml in PBS) for 30 min at 37° C. The cells were chilled over ice and stained with PI (1 mg/ml in PBS) for 1 h and analyzed by flow cytometry using CellQuest software, version 3.0, performed on a FACSCalibur, fluorescence (FL2-A) detector equipped with 488 nm argon laser light source and 623 nm band pass filter (Becton Dickinson, San Jose, Calif., USA). Total 10,000 cells were acquired for analysis by CellQuest software and the quantification of FACS data was performed using ModFit LT software, version 2.0, (Becton Dickinson, San Jose, Calif., USA). The cell population was gated according to the characteristics side scatter and forward scatter intensities of FACS. The number of all gated living cells was taken as 100%, from which the percentage of cells in G0-G1, S and G2-M phase was calculated and presented in the right side of the histogram.

DU145 cell line [3] = assay: Fura-2 measurement of [Ca^2+]c; conditions: DU145, 20 and 40 mM, 48 h
Method: [Ca^2+]c was measured by fluorescent indicator fura-2 acetoxymethyl ester (fura-2 AM) as described in Malgaroli A et al., J. Cell. Biol. 105:2145-2155, 1987. Briefly, DU145 cell line (1×10^6 cells in triplicate culture plates) was exposed to 0, 20 and 40 mM of D-allose for 48 and 72 h and then incubated with serum-free culture media containing 5 μM of fura-2AM at 37° C. in dark for another 1 h. The cells were washed twice with Locke's solution (pH 7.3) and the fura-2 fluorescence signals of [Ca^2+]c were measured by luminescence spectrophotometer (LS 50B, Perkin Elmer, Boston, Mass., USA) using 340 and 380 nm as excitation wavelengths (λex), and 510 nm as emission wavelength (λem). […] The slides were mounted with Prolong Antifade reagent (Molecular Probes, Eugene, Oreg., USA), and images (JC-1, green) were acquired by use of a fluorescence microscope (Axioplan 2, Carl Zeiss, Germany).

Bcl-2 = assay: Western blot analysis of Bcl-2 protein in DU145; conditions: DU145, 20 and 40 mM, 72 h
Method: After 0, 20 and 40 mM of D-allose treatments for 72 h, DU145 cell line (1×10^6 cells in triplicate culture plates) was harvested into cell lysis buffer (Cell Signaling, Danvers, Mass., USA) supplemented with 1 mM PMSF. The cells were then sonicated, centrifuged and protein concentration was measured by Bradford assay with the Bio-Rad protein assay solution using bovine serum albumin (BSA) as standard. Proteins (30 μg) were separated on a 12.5% SDS-PAGE under reducing conditions and transferred onto a PVDF membrane (Santa Cruz Biotechnology, Santa Cruz, Calif., USA). Prestained protein marker, broad range: 6-175 kDa (New England Biolabs Inc., Ipswich, Mass., USA) run in parallel for detection of the molecular weights of the proteins. Membrane was blocked with 5% (w/v) skimmed milk in order to reduce non-specific binding and immunoblotting was performed using rabbit derived anti-Bcl-2, anti-Bax, anti-Caspase 3 and anti-PARP antibodies (1:500; Santa Cruz Biotechnology, Santa Cruz, Calif., USA). […] Membrane was probed with a goat derived horseradish peroxidase-conjugated anti-rabbit IgG (1:1000; Santa Cruz Biotechnology, Santa Cruz, Calif., USA), and proteins were detected by the enhanced chemiluminescence (ECL) detection system according to the vendor's protocol (Amersham Biosciences, Piscataway, N.J., USA) followed by X-ray exposure. […]

## O=C[C@H](O)[C@H](O)[C@H](O)[C@H](O)CO [D-allose]
DU145 cell line [1]
  programmed cell death (apoptotic indices, DAPI staining): significant dose- and time-dependent programmed cell death
PrEC cell line
  programmed cell death (apoptotic indices, DAPI staining): very negligible effect
DU145 cell line [2]; DU145, 20 mM
  cells in G0-G1 phase: 48.7%
DU145 cell line [2]; DU145, 40 mM
  cells in G0-G1 phase: 57.5%
DU145 cell line [2]; DU145, 48 h
  cell number in G2-M phase and S phase: concomitant decrease
DU145 cell line [3]
  [Ca^2+]c: remarkably elevated
Bcl-2
  Bcl-2 protein expression: significantly decreased
